The subject of one data set is Escherichia coli. The data set can be described thus: Antibacterial activity against Escherichia coli assessed as bacterial growth inhibition measured after 16 to 18 hrs by Kirby-Bauer disk diffusion method. The data set is classed as functional, organism-based. The settings on record: time 16-18 hrs.
The next data set has as its system A549. The data set can be described thus: Cytotoxicity against human A549 cells measured after 48 hrs by SRB assay. It counts as functional, cell-based. (Sulforhodamine B stains cellular protein and so reports cell mass.)
Data set [1] in a line: Cytotoxicity against human 1A2 cells measured after 1 hr by XTT assay. It counts as cell-based. The settings on record: 1A2, 1 h. A general note: Tetrazolium dyes change colour on reduction, which living cells bring about.
Another data set concerns Staphylococcus aureus. The data set can be described thus: Antibacterial activity against Staphylococcus aureus assessed as bacterial growth inhibition measured after 16 to 18 hrs by Kirby-Bauer disk diffusion method. The settings on record: time 16-18 hrs. The data set is classed as functional, organism-based. (In general: Agar diffusion results depend on both activity and mobility in agar.)

The next data set deals with ASK. The data set can be described thus: Cytotoxicity against rat ASK cells measured after 48 hrs by SRB assay. It counts as functional, cell-based.
The subject of a further data set is Candida albicans. The data set can be described thus: Antifungal activity against Candida albicans assessed as fungal growth inhibition measured after 16 to 18 hrs by Kirby-Bauer disk diffusion method. The data set is classed as functional, organism-based. The settings on record: time 16-18 hrs.
For a further data set, the system named is Enterococcus faecalis. The data set can be described thus: Antibacterial activity against Enterococcus faecalis assessed as bacterial growth inhibition measured after 16 to 18 hrs by Kirby-Bauer disk diffusion method. The data set is classed as functional, organism-based. The settings on record: time 16-18 hrs.
A further data set has as its system HT-29. The data set can be described thus: Cytotoxicity against human HT-29 cells measured after 48 hrs by SRB assay. It counts as functional, cell-based.
In another data set the test system is KB. The data set can be described thus: Cytotoxicity against human KB cells measured after 48 hrs by SRB assay. It counts as functional, cell-based.
A further data set relates to T-24. The data set can be described thus: Cytotoxicity against human T-24 cells measured after 48 hrs by SRB assay. The data set is classed as functional, cell-based.
The test system of the next data set is Bacillus cereus. The data set can be described thus: Antibacterial activity against Bacillus cereus assessed as bacterial growth inhibition measured after 16 to 18 hrs by Kirby-Bauer disk diffusion method. It counts as functional, organism-based. The settings on record: time 16-18 hrs.
The test system of the next data set is P388. The data set can be described thus: Cytotoxicity against mouse P388 cells measured after 48 hrs by SRB assay. It counts as functional, cell-based.
A further data set concerns MCF7. The data set can be described thus: Cytotoxicity against human MCF7 cells measured after 48 hrs by SRB assay. It counts as functional, cell-based.
A further data set concerns HEK293. The data set can be described thus: Cytotoxicity against human HEK293 cells measured after 48 hrs by SRB assay. It counts as cell-based. The settings on record: hek293, 48 h.
Data set [2] deals with Human immunodeficiency virus type 1 reverse transcriptase (Human immunodeficiency virus 1) (UniProt Q72547). The data set can be described thus: Inhibition of HIV-1 reverse transcriptase using poly(rA)/oligo(dT)1 as template/primer incubated for 1 hr by pico-green reagent based fluorescence analysis.
A short description of data set [3]: Selectivity index, ratio of IC50 for human 1A2 cells to EC50 for Human calicivirus strain MC99 infected in human 1A2 cells. It counts as toxicity, cell-based. The settings on record: read-out: Ratio IC50/EC50.

Active and inactive are the calls of the source. The calls are words filed in the database; no cut-off is given here.

The IC50 is the concentration that gives 50% inhibition. For the compound `CC1(C)CCC[C@]2(C)[C@H]3C[C@@H](C4=CCOC4=O)CC3=CC[C@@H]12`, the inhibition entry in the data set with Escherichia coli, with Staphylococcus aureus, in the data set on Candida albicans, in the data set on Enterococcus faecalis and with Bacillus cereus was “inactive” throughout. In addition, the result in the data set with A549, in the data set with ASK, in the data set with HT-29, in the data set on KB, with T-24 and with P388 was inactive. The result with MCF7 was inactive. Further, the IC50 in [1] came out at 381 µM. The Activity result with HEK293 is on record as “Non-Toxic”.

In the case of `CC1(C)CCC[C@]2(C)C3=C(C[C@H](C4=CCOC4=O)C3)C(=O)C[C@@H]12`, the inhibition entry (in the data set with Escherichia coli; with Staphylococcus aureus; in the data set on Candida albicans; with Enterococcus faecalis; in [2]; with Bacillus cereus) was “inactive” each time. In addition, the outcome in the data set on A549, in the data set on ASK, in the data set with HT-29, in the data set on KB, with T-24 and in the data set with P388 was inactive. In the data set with MCF7, the outcome was inactive. Besides, in data set [1], the IC50 was > 398 µM. Further, the selectivity ratio in data set [3] is > 7.2. Besides, in the data set with HEK293, the Activity result was “Non-Toxic”.

With `CC1(C)C(=O)CC[C@]2(C)C3=C(C[C@H](C4=CCOC4=O)C3)C(=O)C[C@@H]12`, the inhibition entry (with Escherichia coli; in the data set with Staphylococcus aureus; in the data set on Candida albicans; in the data set on Enterococcus faecalis; in [2]; in the data set with Bacillus cereus) was “inactive” each time. Further, the outcome in the data set on A549, with ASK, in the data set with HT-29, with KB, in the data set with T-24 and with P388 was inactive. The result in the data set with MCF7 was inactive. In the data set with HEK293, the Activity result is on record as “Non-Toxic”.

Source of the values: ChEMBL document CHEMBL4813931, “Boesenmaxane Diterpenoids from Boesenbergia maxwellii” (J Nat Prod, 2021).
